Laboratory results from a compilation of properties of binary mixtures (doi:10.1016/j.molliq.2013.09.012).

Test: xn = mol fraction of the nth substance listed
Details: 298.15 K, 101 kPa

SMILES	viscosity (x2 = 0) [mPa·s]	viscosity (x2 = 0.1) [mPa·s]	viscosity (x2 = 0.1449) [mPa·s]	viscosity (x2 = 0.4008) [mPa·s]	viscosity (x2 = 0.4992) [mPa·s]	viscosity (x2 = 0.6009) [mPa·s]	viscosity (x2 = 0.7007) [mPa·s]	viscosity (x2 = 0.8983) [mPa·s]	viscosity (x1 = 1) [mPa·s]	viscosity (x1 = 0.1949) [mPa·s]	viscosity (x1 = 0.2959) [mPa·s]	viscosity (x1 = 0.3803) [mPa·s]	viscosity (x1 = 0.5991) [mPa·s]	viscosity (x1 = 0.7005) [mPa·s]	viscosity (x1 = 0.8066) [mPa·s]
CCCCCC[n+]1ccn(C)c1.F[B-](F)(F)F + CC(C)(C)O	171.8	131.4	115.6	49.8	34.1	23.3	18	11							
CC(C)(C)O + CCCCCC[n+]1ccn(C)c1.F[B-](F)(F)F									4.444						
CCCN + CCCCCC[n+]1ccn(C)c1.F[B-](F)(F)F									0.358	97.3	69.2	50.3	17.7	10.1	4.466
